{
  "source": "patent US20060088902A1",
  "about": "“Methods and materials for the identification of antifungal substrates in filamentous fungi” (priority 2001, published 2006)",
  "format_in_all_cases": "cell-based, Aspergillus niger",
  "key": {"gfaA": {"tested_on": "gfaA", "experiment": "Northern blot analysis of gfaA expression in CFW stressed germlings", "conditions": "germlings treated with 200 μg/ml CFW; RNA 1, 2 and 4 hours after addition; vs untreated germlings", "experimental": "(§1) To identify genes that are induced upon cell wall stress, we have first investigated which cell wall perturbing compound was suited for this purpose. Finally, we used the antifungal compound Calcofluor White (CFW) to induce cell wall stress. […] Because of the defects in cell wall assembly, the cell wall is weakened en swells from internal pressure. Polarized growth is resumed after 2-4 hours. Both the effect of hyphal tip swelling and the time that is required to resume growth are dependent on the concentration of CFW (FIG. 3). To identify genes that are induced upon CFW treatment, mRNA has been isolated from germling that have been treated with or without CFW for various time intervals. […] These germlings were than treated with 200 μg/ml CFW. After 1, 2 and 4 hours after addition of CFW total RNA was isolated and used in Northern blot experiments (see FIG. 4). As a control, total RNA was isolated from germlings that were not treated with CFW. Several probes encoding putative proteins involved in cell wall biosynthesis have been analysed and quantified.\n(§2) The highest induction was found for agsA. Thus, these genes are regulated by the promoter sequences as a response to the induced cell wall stress. Such promoters are suitable candidates for use as reporters. […] No signal could be detected for the other ags homologs."}, "[1]": {"tested_on": "germinated spores of A. niger", "experiment": "Effect of CFW addition on growth of germlings", "experimental": "FIG. 3: Effect of CFW addition on growth of germlings. Germinated spores of A. niger were treated with increasing concentrations of CFW. Both the extend of hyphal tip swelling and the time required to resume growth is dependent on the concentration of CFW.\nas §1"}, "agsA promoter": {"tested_on": "agsA promoter", "experiment": "PagsA-AmdS reporter strain growth on acetamide plates", "conditions": "0.5 mg/ml CFW added to the plates", "source_text": "Aspergillus niger grows poorly on acetamide as a nitrogen source. When additional copies of the amdS gene, encoding a acetamidase of A. nidulans are introduced, A. niger can grown on acetamide plates and the amdS gene can therefore be used as a selectable marker (Kelly and Hynes, 1985). The coding region of the amdS gene was fused to the agsA promoter sequence. Both the relatively low basal expression of the agsA gene and the high level of induction after CFW stress (over 20-fold) makes the agsA promoter a good candidate for use as a reporter. The reporter construct further comprises the amdS gene (A. nidulans) with its own terminator. For targeting to the pyrG locus of the A. niger strain AB4.1 (pyrG^−) the pyrG* gene is included in the construct (cf. Van Gorcum et al., 1988). […]\nThe construct was transformed to strain AB4.1 (a pyrG negative strain derived from N402) and transformants were selected on the presence of an intact pyrG gene. Wild type strain N402 and purified transformants (ABRD1.1-1.25 and ABRD2.1-2.15) were analysed were grown on acetamide and acrylamide plates. […] The majority of the transformants were analysed by Southern blotting to confirm correct integration of the construct."}, "fksA": {"tested_on": "fksA", "experiment": "Northern blot analysis of fksA expression in CFW stressed germlings", "conditions": "in the presence of CFW (200 μg/ml)", "experimental": "as §1, §2"}},
  "data": [
    {"smiles": "O=S(=O)(O)c1cc(Nc2nc(Nc3ccccc3)nc(N(CCO)CCO)n2)ccc1/C=C/c1ccc(Nc2nc(Nc3ccccc3)nc(N(CCO)CCO)n2)cc1S(=O)(=O)O", "note": "[CFW, Calcofluor White]", "values": [
      {"measurement": "increase in gfaA mRNA level", "setting": "gfaA", "result": 4, "unit": "fold"},
      {"measurement": "time until polarized growth is resumed", "setting": "[1]; after CFW treatment, dependent on CFW concentration", "result": "2 to 4", "unit": "h"},
      {"measurement": "hyphal morphology of germinating spores", "setting": "[1]; treatment of germinating spores with CFW, concentration dependent", "result": "formation of swollen hyphe"},
      {"measurement": "growth of PagsA-AmdS transformants on acetamide plates", "setting": "agsA promoter", "result": "resulted in growth (and sporulation) for the majority of the transformants"},
      {"measurement": "expression level of fksA", "setting": "fksA", "result": "not significantly altered"}
    ]}
  ]
}
